Results reported in patent US20160264593A1 (priority 2013, published 2016).
“And” between values parts separate entries of the source, which are not always exact repeats. Equal values may be shown once.

Test: Pharmacokinetic study of 151 (and 100) in SD rats, iv and oral; plasma
Conditions: for AUC0-t of 151 / AUC0-∞ of 151 / CL of 151 / MRT of 151 / T1/2 of 151 / Vss of 151 / Cmax of 151: plasma
Experimental: A pharmacokinetic study of 151 was conducted in SD rats. The study consisted of two dose levels at 1.0 (iv) and 10 (oral) mg/kg. The blood samples were collected at predetermined times from rats and centrifuged to separate plasma. An LC/MS/MS method was developed to determine the test article in plasma samples. The pharmacokinetic parameters of 151 following iv and oral administration to SD rats were calculated. The absolute bioavailability was evaluated.
The final concentration of the test article was 0.2 mg/mL for iv administration and 1.0 mg/mL for oral administration. The test article solutions were administered using the most recent body weight for each animal.
Blood (approximately 0.3 mL) were collected via orbital plexus into tubes containing sodium heparin at 0.25, 0.5, 1, 2, 3, 5, 7, 9, and 24 hours after oral administration; at 5 min, 15 min, 0.5, 1, 2, 3, 5, 7, 9 and 24 hours after iv administration. Samples were centrifuged for 5 min, at 4° C. with the centrifuge set at 11,000 rpm to separate plasma. The obtained plasma samples were stored frozen at a temperature of about −70° C. until analysis.
Frozen plasma samples were thawed at room temperature and vortexed thoroughly. With a pipette, an aliquot (30 μL) of plasma was transferred into a 1.5-mL conical polypropylene tube. To each sample, 160 μL of acetonitrile were added. The samples were then vigorously vortex-mixed for 1 min. After centrifugation at 11000 rpm for 5 min, a 15 μL aliquot of the supernatant was injected into the LC-MS/MS system for analysis.
Calibration standards were prepared by spiking 30 μL of the 151 standard solutions into 30 μL of heparinized blank rat plasma. The nominal standard concentrations in the standard curve were 1.00, 3.00, 10.0, 30.0, 100, 300, 1000 and 3000 ng/mL.
The analysis was performed using an LC-MS/MS system consisting of the following components—HPLC system: Agilent 1200 series instrument consisting of G1312B vacuum degasser, G1322A binary pump, G1316B column oven and G1367D autosampler (Agilent, USA); MS/MS system: Agilent 6460 triple quadrupole mass spectrometer, equipped with an APCI Interface (Agilent, USA); Data system: MassHunter Software (Agilent, USA).
Chromatographic separation was carried out at room temperature—Analytical column: C8 column (4.6 mm×150 mm I.D., 5 μm, Agilent, USA); Mobile phase: Acetonitrile:10 mM ammonium acetate (75:25, v/v); Flow rate: 0.80 mL/min; Injection volume: 15 μL.
The mass spectrometer was operated in the positive mode. Ionization was performed applying the following parameters: gas temperature, 325° C.; vaporizer temperature, 350° C.; gas flow, 4 L/min; nebulizer, 20 psi; capillary voltage, 4500 V; corona current, 4 μA. 151 was detected using MRM of the transitions m/z 283→m/z 123 and m/z 283→m/z 251, simultaneously. The optimized collision energies of 25 eV and 10 eV were used for m/z 123 and m/z 251, respectively.
Quantification was achieved by the external standard method. Concentrations of the test article were calculated using a weighted least-squares linear regression (W=1/x^2).
The pharmacokinetic parameters were evaluated using WinNonlin version 5.3 (Pharsight Corp., Mountain View, Calif., USA), assuming a non-compartmental model for drug absorption and distribution. • AUC0-t is the area under the plasma concentration-time curve from time zero to last sampling time, calculated by the linear trapezoidal rule. • AUC0-∞ is the area under the plasma concentration-time curve from time zero extrapolating to infinity. • T1/2 is the elimination half-life associated with the terminal (log-linear) elimination phase, which is estimated via linear regression of time vs. log concentrations. • CL is the total body clearance. • Vss is the volume of distribution at steady-state.

[1] = 151 IV 1.0 mg/kg, SD rats, individual, 1 mg/kg
[2] = 151 IV 1.0 mg/kg, SD rats, mean
[3] = 151 PO 10 mg/kg, SD rats, individual, 10 mg/kg

## COC(=O)C1C2CCC(O2)C1C(=O)N1CCN(C)CC1 (centres unmarked) [Compound 151]
151 IV 1.0 mg/kg, SD rats, 0.083 h, individual, 1 mg/kg
  151 plasma concentration: 1677 ng/mL and 1301 ng/mL
151 IV 1.0 mg/kg, SD rats, 0.083 h, mean
  151 plasma concentration: 1489 ng/mL
151 IV 1.0 mg/kg, SD rats, 0.250 h, individual, 1 mg/kg
  151 plasma concentration: 1160 ng/mL and 949 ng/mL
151 IV 1.0 mg/kg, SD rats, 0.250 h, mean
  151 plasma concentration: 1055 ng/mL
151 IV 1.0 mg/kg, SD rats, 0.50 h, individual, 1 mg/kg
  151 plasma concentration: 760 ng/mL and 807 ng/mL
151 IV 1.0 mg/kg, SD rats, 0.50 h, mean
  151 plasma concentration: 683 ng/mL
151 IV 1.0 mg/kg, SD rats, 1.0 h, individual, 1 mg/kg
  151 plasma concentration: 381 ng/mL and 314 ng/mL
151 IV 1.0 mg/kg, SD rats, 1.0 h, mean
  151 plasma concentration: 348 ng/mL
151 IV 1.0 mg/kg, SD rats, 2.0 h, individual, 1 mg/kg
  151 plasma concentration: 95.8 ng/mL and 103 ng/mL
151 IV 1.0 mg/kg, SD rats, 2.0 h, mean
  151 plasma concentration: 99.6 ng/mL
151 IV 1.0 mg/kg, SD rats, 3.0 h, individual, 1 mg/kg
  151 plasma concentration: 39.6 ng/mL and 28.1 ng/mL
151 IV 1.0 mg/kg, SD rats, 3.0 h, mean
  151 plasma concentration: 33.8 ng/mL
151 IV 1.0 mg/kg, SD rats, 5.0 h, individual, 1 mg/kg
  151 plasma concentration: 9.75 ng/mL and 3.63 ng/mL
151 IV 1.0 mg/kg, SD rats, 5.0 h, mean
  151 plasma concentration: 6.69 ng/mL
151 IV 1.0 mg/kg, SD rats, 7.0 h, individual, 1 mg/kg
  151 plasma concentration: 12.2 ng/mL and 1.83 ng/mL
151 IV 1.0 mg/kg, SD rats, 7.0 h, mean
  151 plasma concentration: 7.02 ng/mL
151 IV 1.0 mg/kg, SD rats, 9.0 h, individual
  151 plasma concentration: 2.01 ng/mL
151 IV 1.0 mg/kg, SD rats, 9.0 h, individual, 1 mg/kg
  151 plasma concentration: BLQ
151 IV 1.0 mg/kg, SD rats, 9.0 h, mean
  151 plasma concentration: 1.00 ng/mL
151 IV 1.0 mg/kg, SD rats, 24 h, individual
  151 plasma concentration: BLQ
151 PO 10 mg/kg and iv 1.0 mg/kg
  conversion of 151 to 100 in plasma (statement): converted to LB100
151 PO 10 mg/kg, SD rats, 0.25 h, individual, 10 mg/kg
  151 plasma concentration: 2231 ng/mL and 2029 ng/mL and 2731 ng/mL
151 PO 10 mg/kg, SD rats, 0.25 h, mean
  151 plasma concentration: 2330 ng/mL
151 PO 10 mg/kg, SD rats, 0.50 h, individual, 10 mg/kg
  151 plasma concentration: 2451 ng/mL and 3934 ng/mL and 3343 ng/mL
151 PO 10 mg/kg, SD rats, 0.50 h, mean
  151 plasma concentration: 3243 ng/mL
151 PO 10 mg/kg, SD rats, 1.0 h, individual, 10 mg/kg
  151 plasma concentration: 2204 ng/mL and 2581 ng/mL and 2538 ng/mL
151 PO 10 mg/kg, SD rats, 1.0 h, mean
  151 plasma concentration: 2441 ng/mL
151 PO 10 mg/kg, SD rats, 2.0 h, individual, 10 mg/kg
  151 plasma concentration: 1100 ng/mL and 1237 ng/mL and 1582 ng/mL
151 PO 10 mg/kg, SD rats, 2.0 h, mean
  151 plasma concentration: 1306 ng/mL
151 PO 10 mg/kg, SD rats, 3.0 h, individual, 10 mg/kg
  151 plasma concentration: 521 ng/mL and 660 ng/mL and 794 ng/mL
151 PO 10 mg/kg, SD rats, 3.0 h, mean
  151 plasma concentration: 658 ng/mL
151 PO 10 mg/kg, SD rats, 5.0 h, individual, 10 mg/kg
  151 plasma concentration: 125 ng/mL and 99.4 ng/mL and 192 ng/mL
151 PO 10 mg/kg, SD rats, 5.0 h, mean
  151 plasma concentration: 139 ng/mL
151 PO 10 mg/kg, SD rats, 7.0 h, individual, 10 mg/kg
  151 plasma concentration: 42.6 ng/mL and 20.7 ng/mL and 68.0 ng/mL
151 PO 10 mg/kg, SD rats, 7.0 h, mean
  151 plasma concentration: 43.8 ng/mL
151 PO 10 mg/kg, SD rats, 9.0 h, individual, 10 mg/kg
  151 plasma concentration: 52.1 ng/mL and 38.2 ng/mL and 66.1 ng/mL
151 PO 10 mg/kg, SD rats, 9.0 h, mean
  151 plasma concentration: 52.1 ng/mL
151 PO 10 mg/kg, SD rats, 24 h, individual
  151 plasma concentration: BLQ
151 PO 10 mg/kg, SD rats, mean
  F of 151: 54.6%
  AUC0-t of 151: 6340 ng·h/mL
  AUC0-∞ of 151: 6437 ng·h/mL
  Cmax of 151: 3243 ng/mL
  MRT of 151: 1.81 h
  T1/2 of 151: 1.26 h
151 administered to rats
  conversion to endothal in the plasma (statement): converted to endothal
151 iv 1.0 mg/kg
  mean clearance of 151 from rat plasma: 14.3 mL/min/kg
  volume of distribution at steady state of 151: 0.736 L/kg
151 iv 1.0 mg/kg (n=2)
  elimination half-life of 151: 0.89 h
151 oral 10 mg/kg (n=3)
  mean half-life of 151: 1.26 h
  time of peak plasma concentration of 151: 0.5 h
Oral 10 mg/kg, based on AUC0-∞
  absolute bioavailability (F) of 151: 54.6%
[1]
  AUC0-t of 151: 1293 ng·h/mL and 1045 ng·h/mL
  AUC0-∞ of 151: 1309 ng·h/mL and 1047 ng·h/mL
  CL of 151: 12.7 mL/min/kg and 15.9 mL/min/kg
  MRT of 151: 0.91 h and 0.81 h
  T1/2 of 151: 0.91 h and 0.87 h
  Vss of 151: 0.696 L/kg and 0.775 L/kg
[2]
  AUC0-t of 151: 1169 ng·h/mL
  AUC0-∞ of 151: 1178 ng·h/mL
  CL of 151: 14.3 mL/min/kg
  MRT of 151: 0.86 h
  T1/2 of 151: 0.89 h
  Vss of 151: 0.736 L/kg
[3]
  AUC0-t of 151: 5399 ng·h/mL and 6423 ng·h/mL and 7199 ng·h/mL
  AUC0-∞ of 151: 5499 ng·h/mL and 6484 ng·h/mL and 7328 ng·h/mL
  Cmax of 151: 2451 ng/mL and 3934 ng/mL and 3343 ng/mL
  MRT of 151: 1.86 h and 1.62 h and 1.95 h
  T1/2 of 151: 1.33 h and 1.10 h and 1.35 h
